Measured values taken from ChEMBL document CHEMBL5726379, “Selective histone deactylase 6 inhibitors” (2017).

Legend:
Histone deacetylase 1 = Histone deacetylase 1 (Homo sapiens, UniProt Q13547)
[1] = target: T1, Protein deacetylase HDAC6 (Homo sapiens, UniProt Q9UBN7)
T1 sequence (Q9UBN7 whole entry): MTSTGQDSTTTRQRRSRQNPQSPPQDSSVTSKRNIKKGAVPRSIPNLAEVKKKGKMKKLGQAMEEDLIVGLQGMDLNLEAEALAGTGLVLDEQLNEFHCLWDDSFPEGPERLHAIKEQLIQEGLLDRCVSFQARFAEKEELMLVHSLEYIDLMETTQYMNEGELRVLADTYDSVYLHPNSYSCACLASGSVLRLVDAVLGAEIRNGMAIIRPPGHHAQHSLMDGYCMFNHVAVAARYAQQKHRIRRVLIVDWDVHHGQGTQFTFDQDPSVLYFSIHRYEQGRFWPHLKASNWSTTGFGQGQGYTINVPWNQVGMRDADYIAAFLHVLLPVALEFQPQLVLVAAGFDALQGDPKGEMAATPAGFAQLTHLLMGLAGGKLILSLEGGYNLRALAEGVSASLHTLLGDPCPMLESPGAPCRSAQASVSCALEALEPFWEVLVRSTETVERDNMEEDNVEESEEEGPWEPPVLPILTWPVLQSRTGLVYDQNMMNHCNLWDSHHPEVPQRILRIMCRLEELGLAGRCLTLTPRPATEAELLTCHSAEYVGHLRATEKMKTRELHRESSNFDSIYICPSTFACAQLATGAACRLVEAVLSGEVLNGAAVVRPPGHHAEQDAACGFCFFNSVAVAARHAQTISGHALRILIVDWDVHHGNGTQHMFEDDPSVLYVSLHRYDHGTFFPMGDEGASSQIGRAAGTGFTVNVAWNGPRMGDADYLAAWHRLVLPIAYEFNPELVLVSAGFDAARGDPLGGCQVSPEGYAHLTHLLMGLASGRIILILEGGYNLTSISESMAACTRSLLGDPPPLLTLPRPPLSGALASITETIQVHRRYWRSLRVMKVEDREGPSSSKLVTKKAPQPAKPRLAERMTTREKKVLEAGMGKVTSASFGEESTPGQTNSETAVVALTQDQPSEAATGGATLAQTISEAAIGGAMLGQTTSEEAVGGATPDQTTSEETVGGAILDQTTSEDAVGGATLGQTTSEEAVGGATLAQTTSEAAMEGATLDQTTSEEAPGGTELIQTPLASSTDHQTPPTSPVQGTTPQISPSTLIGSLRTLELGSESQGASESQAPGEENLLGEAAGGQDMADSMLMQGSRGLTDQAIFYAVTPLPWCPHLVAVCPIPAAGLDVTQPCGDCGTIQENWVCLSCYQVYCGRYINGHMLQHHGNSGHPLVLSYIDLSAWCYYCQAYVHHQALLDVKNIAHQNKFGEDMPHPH

Chain of Histone deacetylase 1 (Q13547 whole entry): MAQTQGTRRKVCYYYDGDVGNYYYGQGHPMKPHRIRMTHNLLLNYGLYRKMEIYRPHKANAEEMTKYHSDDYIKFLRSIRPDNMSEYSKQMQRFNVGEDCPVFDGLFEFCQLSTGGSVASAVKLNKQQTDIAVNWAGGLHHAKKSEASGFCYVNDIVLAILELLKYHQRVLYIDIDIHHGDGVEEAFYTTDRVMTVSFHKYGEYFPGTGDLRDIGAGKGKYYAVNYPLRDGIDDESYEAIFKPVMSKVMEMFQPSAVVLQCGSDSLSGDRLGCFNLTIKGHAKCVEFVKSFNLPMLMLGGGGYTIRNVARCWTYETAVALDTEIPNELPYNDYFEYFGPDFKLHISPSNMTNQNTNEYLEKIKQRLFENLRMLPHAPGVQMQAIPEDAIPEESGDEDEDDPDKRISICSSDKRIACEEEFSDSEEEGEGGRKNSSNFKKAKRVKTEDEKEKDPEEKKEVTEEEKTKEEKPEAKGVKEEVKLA

Structure (SMILES): CCCCN(Cc1ccc(C(=O)NO)cc1)C(=O)Nc1cccc(N(C)C)c1
- IC50 (Histone deacetylase 1): 604 nM
- IC50 [1]: 6.12 nM

Structure (SMILES): O=C(NCc1ccc(C(=O)NO)cc1)Nc1ccc(CO)cc1
- IC50 (Histone deacetylase 1): 1060 nM
- IC50 [1]: 8.3 nM
